Key:
[1] = tested on: patients with moderate to severe atopic dermatitis; test: Phase II placebo-controlled study of oral DS107G: efficacy (IGA, EASI, SCORAD, pruritus VAS, BSA); type: in vivo, human; conditions: for IGA Non-Responders at Week 8, (%) / IGA Responders at Week 8, (%) / IGA Score Week 8: 0 - Clear, (%) / IGA Score Week 8: 1 - Almost Clear, (%) / IGA Score Week 8: 2 - Mild, (%) / IGA Score Week 8: 3 - Moderate, (%) / IGA Score Week 8: 4 - Severe, (%) / IGA Score Week 8: 5 - Very Severe, (%): ITT; for Visual analog scale of pruritus, Week 8/ET Actual, Mean / Visual analog scale of pruritus, Week 8/ET Actual, Median: oral 2 g once daily
Description: A randomised, double-blind, placebo-controlled, phase II study was performed to assess the efficacy and safety of orally administered DS107G (DGLA) to patients with moderate to severe atopic dermatitis. The primary objective of the study was to compare the efficacy of orally administered DS107G capsules, versus placebo, in the treatment of adult patients with moderate to severe atopic dermatitis. The secondary objective was to assess the safety of orally administered DS107G capsules, versus placebo, in adult patients with moderate to severe atopic dermatitis. The primary study endpoint was the proportion of patients achieving an IGA (Investigator Global Assessment) of 0 (clear) or 1 (almost clear) and a decrease of at least 2 points in IGA at week 8. Secondary study endpoints included:
Approximately 100 patients with moderate to severe atopic dermatitis were included in this multicenter, double-blind, placebo controlled, phase IIa study. All subjects signed an informed consent and underwent screening for study eligibility. Subjects were randomized (1:1) at baseline visit to either receive oral DS107G 2 g or placebo, once daily for 8 weeks in a fasting state.
Subjects visited the clinic on 6 occasions: at screening, baseline, week 2, week 4, week 8 (end of treatment/early termination) and week 10 (follow-up). All subjects exited the study at the week 10 visit. The primary efficacy variable was the proportion of patients achieving an IGA of 0 (clear) or 1 (almost clear), and a decrease of at least 2 points in IGA at week 8. Secondary efficacy variables included: IGA at other visits, pruritus (obtained from the SCORAD visual analog scale), EASI, BSA, POEM, DLQI, SCORAD and TEWL (for selected sites only). Safety was assessed through adverse events, physical examination, vital signs and safety laboratory tests (including pregnancy tests for women of childbearing potential), Pharmacokinetic samples were obtained at Baseline (Day 0), week 4 and week 8 visits in order to measure total and free DGLA plasma trough levels. Separate plasma samples were retained for later analysis of total fatty acid profile and interleukin profile.
The EASI is a composite score ranging from 0-72 that takes into account the degree of erythema, induration/papulation, excoriation, and lichenification (each scored from 0 to 3 separately) for each of four body regions, with adjustment for the percent of BSA involved for each body region and for the proportion of the body region to the whole body. A detailed procedure of EASI score calculation is provided below.
SCORAD is calculated as follows: Six items (erythema, edema/papulation, oozing/crusts, excoriation, lichenification, and dryness) are selected to evaluate the AD severity. The intensity of each item is graded using a 4-point scale:
The overall BSA affected by AD is evaluated (from 0 to 100%) and divided by 5. One patient's palm represents 1% of his/her total BSA. The maximum is 20.
Subjective items include loss of sleep and the occurrence of pruritus. These are evaluated by asking patients to indicate on the 10-cm scale (0-10) on the assessment form the point corresponding to the average value for the last three days/nights. The combined maximum score of these two is 20.
The sum of the above measures represents the SCORAD which can vary from 0 to 103. If the subjective scores of pruritus and loss of sleep are excluded, the SCORAD becomes objective SCORAD (score range 0-83).
Body Surface Area (BSA). The overall BSA affected by AD will be evaluated (from 0 to 100%) at each visit. One patient's palm represents 1% of his/her total BSA. For all study visits, except at screening, the BSA of involved skin will be measured with the SCORAD measurement and evaluated as a separate endpoint.
Subjects who fulfilled all the inclusion and none of the exclusion criteria were accepted in the study. Each subject read and signed an informed consent form prior to any screening procedures being performed. […]

[2] = tested on: patients with moderate to severe atopic dermatitis; test: Phase II study of oral DS107G: eosinophil concentrations and responders by ethnicity; type: in vivo, human; conditions: for Patients classified as Responders: IGA 0 or 1 at Week 8 with 2-point decrease
Description: The primary endpoint can be translated as a responder analysis where a subject is classified as Responder if he/she achieves an IGA score of 0 (clear) or 1 (almost clear) at Week 8, considering a 2-point decrease from baseline. The comparison between groups for the primary endpoint was done using a Cochran-Mantel-Haenszel test, with site included as a stratification factor. A supportive analysis was performed using a Fisher's exact test. The primary efficacy analysis was done using observed values and a supportive analysis was conducted using the last observation carried forward (LOCF) approach. The analyses was done using the ITT population and served as the primary analysis, while the analysis of the primary endpoint using the PP population was used as a sensitivity analysis.
A surprising discovery was observed when the data was further interrogated.
Eosinophils are a type of white blood cell that play an important role in the body's response to allergic reactions, asthma, and infection with parasites. Eosinophils usually account for less than 7% of the circulating white blood cells (100 to 500 eosinophils per microliter of blood). These cells have a role in the protective immunity against certain parasites but also contribute to the inflammation that occurs in allergic disorders.
FIG. 30A-B. In particular, 56% of DS107-treated African America patients were classified as Responders, versus only 7% of Caucasian patients. FIG. 31A-B. As discussed in detail above, a subject is classified as a Responder if he/she achieves an IGA score of 0 (clear) or 1 (almost clear) at Week 8, considering a 2-point decrease from baseline. FIG. 32 depicts the same data for eosinophil concentrations in all Responders in the total population (FIG. 32A) and for DS107 treated patients (FIG. 32B) and placebo treated patients (FIG. 32C). […] FIG. 33A-C. […] FIGS. 34A-C and FIGS. 35A-C.

[3] = oral 2 g once daily 8 weeks, n 35

SMILES: CCCCC/C=C\C/C=C\C/C=C\CCCCCCC(=O)O [DGLA, Dihomo gamma linolenic acid]
- IGA Non-Responders at Week 8, (%) ([1]; Moderate at baseline): (72.4) %
- IGA Responders at Week 8, (%) ([1]; Moderate at baseline): (27.6) %
- IGA Score Week 8: 0 - Clear, (%) ([1]; Moderate at baseline): (13.8) %
- IGA Score Week 8: 1 - Almost Clear, (%) ([1]; Moderate at baseline): (13.8) %
- IGA Score Week 8: 2 - Mild, (%) ([1]; Moderate at baseline): (20.7) %
- IGA Score Week 8: 3 - Moderate, (%) ([1]; Moderate at baseline): (13.8) %
- IGA Score Week 8: 4 - Severe, (%) ([1]; Moderate at baseline): (3.4) %
- IGA Score Week 8: 5 - Very Severe, (%) ([1]; Moderate at baseline): (0.0) %
- IGA Non-Responders at Week 8, (%) ([1]; Very Severe/Severe at baseline): (72.7) %
- IGA Score Week 8: 0 - Clear, (%) ([1]; Very Severe/Severe at baseline): (0.0) %
- IGA Score Week 8: 1 - Almost Clear, (%) ([1]; Very Severe/Severe at baseline): (13.6) %
- IGA Score Week 8: 2 - Mild, (%) ([1]; Very Severe/Severe at baseline): (13.6) %
- IGA Score Week 8: 3 - Moderate, (%) ([1]; Very Severe/Severe at baseline): (27.3) %
- IGA Score Week 8: 4 - Severe, (%) ([1]; Very Severe/Severe at baseline): (13.6) %
- IGA Score Week 8: 5 - Very Severe, (%) ([1]; Very Severe/Severe at baseline): (4.5) %
- IGA Responders at Week 8, (%) ([1]; Very Severe/Severe at baseline, p-value 0.542): (27.3) %
- IGA Non-Responders at Week 8, (%) ([1]; total population (N = 51)): (72.5) %
- IGA Score Week 8: 0 - Clear, (%) ([1]; total population (N = 51)): (7.8) %
- IGA Score Week 8: 1 - Almost Clear, (%) ([1]; total population (N = 51)): (13.7) %
- IGA Score Week 8: 2 - Mild, (%) ([1]; total population (N = 51)): (17.6) %
- IGA Score Week 8: 3 - Moderate, (%) ([1]; total population (N = 51)): (19.6) %
- IGA Score Week 8: 4 - Severe, (%) ([1]; total population (N = 51)): (7.8) %
- IGA Score Week 8: 5 - Very Severe, (%) ([1]; total population (N = 51)): (2.0) %
- IGA Responders at Week 8, (%) ([1]; total population, decrease of at least 2 points in IGA score, p-value 0.065 (Cochran-Mantel-Haenszel), 0.228 (Fisher Exact)): (27.5) %
- Visual analog scale of pruritus, Week 8/ET Actual, Mean ([1]; Table 9A (Week 4), n 35): 4.6
- Visual analog scale of pruritus, Week 8/ET Actual, Median ([1]; Table 9A (Week 4), n 35): 4.0
- Visual analog scale of pruritus, Week 8/ET Actual, Mean ([1]; Table 9B (Week 8), n 35): 4.6
- Visual analog scale of pruritus, Week 8/ET Actual, Median ([1]; Table 9B (Week 8), n 35): 4.0
- EASI, Change from baseline, LSMEANS ([1]; Week 8/ET, ANCOVA, p-value 0.831 vs placebo): −8.0
- Primary efficacy end point (two point drop in IGA and end of treatment IGA of 0 or 1) over placebo ([1]; intent to treat analysis, overall, p=0.057): clinically significant trend
- Primary efficacy end point (two point drop in IGA and end of treatment IGA of 0 or 1) over placebo ([1]; moderate patient subgroup (n=67), p=0.036): statistically significant improvement
- Body surface area affected by atopic dermatitis, Week 8/ET Actual, Median [1, 3]: 12.0
- EASI, Week 8/ET Actual, Median [1, 3]: 7.4
- Eczema area and severity index (EASI), Week 8/ET Actual, Mean [1, 3]: 9.3
- Pruritus score [visual analog scale] ([1]; within four weeks of dosing, p=0.015): statistically significant reduction of itch
- Patients classified as Responders ([2]; African America patients): 56%
- Patients classified as Responders ([2]; Caucasian patients): 7%
- Response rate in subjects having low baseline eosinophil counts ([2]; in vivo): higher response rate
